# Results taken from patent US20130059385A1, “METHODS OF GENERATING PLURIPOTENT STEM CELLS” (THE SCRIPPS RESEARCH INSTITUTE, priority 2010, published 2013).
# Columns and labels:
# MEF cells = conditions: cited from earlier work
# [1] = test system: MEFs transduced with Oct4, Sox2 and Klf4; assay: Reprogramming of MEFs transduced by Oct4, Sox2 and Klf4 (AP-positive / Oct4-GFP-positive colonies); assay type: cell-based, mouse
# Description: FIG. 1. CHIR99021 promoted the reprogramming of MEFs transduced by Oct4, Sox2 and Klf4. MEFs from 129 strain were transduced with Oct4, Sox2 and Klf4 by retroviruses, and treated the next day with increasing concentrations of CHIR99021 for two week. Three weeks later, AP was detected by staining cells in monolayer (A). […] After 3 weeks of treatment, the GFP positive colonies in each well were counted (B).
# Cell Culture and Viral Transduction: MEFs were derived from 12952/SvPasCrlf and ROSA26^+/−/OG2^+/− mice according to the protocol reported on WiCell Research Institute website: “Introduction to human embryonic stem cell culture methods”. ROSA26^+/−/OG2^+/− transgenic mice carry GFP reporter gene under the control of the Oct4 promoter (Oct4-GFP) and the ubiquitously expressed neo/lacZ transgene [Do J T, Scholer H R, Stem Cells, 22:941-949 (2004)]. Animal experiments were performed according to the Animal Protection Guidelines of the Max Planck Institute for Biomolecular Research, Germany. […] MEFs transduced with Oct4/Klf4/Sox2 (1×10^4 cells/well together with 10^5 cells/well CF1 feeders in 6-well plates) were then treated with GSK-3 inhibitor CHIR99021 (Stemgent) for two weeks, and EGFP positive colonies were picked up at the third week after treatment. MEFs transduced with Oct4/Klf4 (1×10^5 cells/well in 6-well plates) were treated with 10 μM CHIR99021 for four weeks, GFP positive colonies were picked up and expanded at the fourth to fifth week after treatment.
# Cytochemistry and Immunofluorescence Assay: Alkaline Phosphatase staining was performed according to the manufacturer's protocol using the Alkaline Phosphatase Detection Kit (Millipore). For immunofluorescence assay, cells were fixed in 4% paraformaldehyde for 10 minutes and washed three times with PBS containing 0.1% Triton X-100 (Sigma-Aldrich). The fixed cells were then incubated in blocking buffer, 0.1% Triton X-100 and 10% normal donkey serum (Jackson ImmunoResearch Laboratories Inc) in PBS (Invitrogen/Gibco BRL), for 30 min at room temperature. […]
# [2] = test system: Sox2 and Oct4 expression in MEFs; assay: Real-time PCR of pluripotency gene expression in untransduced MEFs after treatment; assay type: cell-based, mouse; conditions: 10 μM CHIR99021, three days
# Description: FIG. 2. […] Scale bars, 20μm. […] PCR analysis: […] The primer for viral Klf4 was [NT] and [NT]. The primer for FGF-4 was [NT] and [NT].
# [3] = test system: Neural progenitor cells (NPCs); conditions: NPC reprogramming, Shi et al. 2008; cited from earlier work
smiles,measurement,setting,value
Nc1ncn([C@@H]2O[C@H](CO)[C@@H](O)[C@H]2O)c(=O)n1 [5-AZA],improvement of reprogramming efficiency,MEF cells,up to 4 folds
Cc1c[nH]c(-c2cnc(NCCNc3ccc(C#N)cn3)nc2-c2ccc(Cl)cc2Cl)n1 [CHIR99021],concentration showing the greatest effects on reprogramming,[1]; Oct4/Sox2/Klf4-transduced ROSA26+/-/OG2+/- MEFs,about 10 μM
same,reprogramming efficiency (GFP-positive colonies) of transduced MEFs,"[1]; about 10 μM CHIR99021, treated two weeks, counted after 3 weeks, without compound 0.03-0.08%",0.2-0.4%
same,number of AP-positive mESC-like colonies,"[1]; treated two weeks, AP staining at third week after treatment",significantly increased the number of alkaline phosphase (AP)-positive mESC-like colonies in a dose-dependent manner
same,induction of Sox2 and Oct4 expression in MEFs (real-time PCR),[2],did not induce the expression of Sox2 and Oct4
COc1cc2nc(N3CCCN(C)CC3)nc(NC3CCN(Cc4ccccc4)CC3)c2cc1OC [BIX-01294],enhancement of reprogramming efficiency,[3],over 8 fold
